The target of data set [1] is T1, hα7-wt nAChR-expressing cells (Homo sapiens, UniProt P36544).
T1 construct: expressed in transfected cells; host or cells: hα7-wt nAChR-expressing cells
In words: Ca2+ flux imaging (FDSS) (Protocol B), PAM activity with choline 100 μM. It is filed as cell-based. The conditions noted are these: according to Ex. D.1b; read-out: % Efficacy. The method, then: Ca^2+ Flux Imaging (FDSS) (Protocol B)
• a) Assay buffer • Hanks buffered saline solution (HBSS, Invitrogen, Belgium), supplemented with 10 mM HEPES (Invitrogen, Belgium), CaCl2 to a final concentration of 5 mM, 0.1% Bovine serum albumin (Sigma-Aldrich NV, Belgium). • b) Calcium-sensitive dye—Fluo-4AM • Fluo-4AM (Molecular Probes, USA) was dissolved in DMSO containing 10% Pluronic acid (Molecular Probes, USA) to give a stock solution which was diluted in assay buffer supplemented with 5 mM probenicid (Sigma, Al-drich NV, Belgium) to give a final concentration of 2 μM. • c) 384-well plates • Black 384 well plate black/clear plates, PDL pre-coated (Corning, Incorporated, USA) • d) Calcium flux measurement • A Functional drug screening system (FDSS, Hamamatsu) was used to measure intracellular free-calcium flux signals. Method
Monolayers of hα7-wt nAChR-expressing cells were grown in multi-well plates, in particular black-sided, transparent bottomed 384 well plates coated with poly-D-lysine for 24 hours prior to loading with a fluorescent calcium indicator, in a particular embodiment loading with fluo-4AM for up to 120 minutes.
PAM activity was detected in real time by applying the compounds to be tested to the loaded cells along with a α7 nicotinic receptor agonist during constant monitoring of cellular fluorescence in a FDSS. Compounds giving peak fluorescent responses greater than the response due to agonist alone, were considered to be α7 nAChR PAM's. In a particular embodiment, the α7 nicotinic receptor agonist was choline, a more particular embodiment choline applied at a sub-maximal concentration of 100 μM. In a further setting of the present invention the compounds to be tested were applied prior to the α7 nicotinic receptor agonist, in a particular embodiment up to 10 minutes prior to the agonist.
A control response to choline was calculated on each plate from the difference in peak in fluorescence in wells receiving either choline or assay buffer alone. Compounds of the present invention were tested at a concentration range from 0.01 μM to 30 μM. Compounds were considered to have an interesting activity when they potentiated the choline signal at least with 500% when tested at a concentration of 30 μM (the efficacy of 100 μM choline was defined as 100% in the absence of a PAM). The compounds also have a potentiating effect on the response to choline when measured by whole-cell patch clamp electrophysiology in GH4Cl cells stably over-expressing the human wild-type α7 receptor.

In data set [2] the target is T2, hα7-wt nAChR-expressing GH4Cl cells (Homo sapiens, UniProt P36544).
T2 construct: expressed in transfected cells
In words: Patch-clamp current recording (whole-cell), potentiation of choline 1 mM response, PAM type. The conditions noted are these: for EC50: according to Ex. D.2, "<5" = no top plateau reached at maximal concentration, read-out: Potency (pEC50) (converted); for Pam type: patch-clamp current recording, 1 mM choline. Also on record: key to Pam type: Type 0 compounds minimally enhance the effect size of the current elicited by 1 mM choline.; Type 1 compounds enhance the effect size of the current elicited by 1 mM choline but minimally alter the kinetics of the receptor.; Type 2 compounds enhance the effect size of the current elicited by 1 mM choline while reducing the rate and/or the extent of desensitization.; Type 3 compounds enhance the effect size of the current elicited by 1 mM choline. When tested at higher concentrations up to 10 μM they completely inhibit desensitization, in particular a 1 mM choline application of 250 milliseconds.; Type 4 compounds allow for an initial desensitization of the receptor followed by a re-opening of the receptor during agonist application. Format: cell-based. The method in brief: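 PAM type assigned qualitatively from current size and desensitization rate/extent when compound is applied simultaneously with 1 mM choline. Recordings: hα7-wt nAChR GH4Cl cells, whole-cell patch clamp, holding −70 mV, series resistance <15 MΩ with ≥60% compensation, pH 7.3 HEPES solutions, solution switching <100 ms.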

T2 sequence (P36544 23-502): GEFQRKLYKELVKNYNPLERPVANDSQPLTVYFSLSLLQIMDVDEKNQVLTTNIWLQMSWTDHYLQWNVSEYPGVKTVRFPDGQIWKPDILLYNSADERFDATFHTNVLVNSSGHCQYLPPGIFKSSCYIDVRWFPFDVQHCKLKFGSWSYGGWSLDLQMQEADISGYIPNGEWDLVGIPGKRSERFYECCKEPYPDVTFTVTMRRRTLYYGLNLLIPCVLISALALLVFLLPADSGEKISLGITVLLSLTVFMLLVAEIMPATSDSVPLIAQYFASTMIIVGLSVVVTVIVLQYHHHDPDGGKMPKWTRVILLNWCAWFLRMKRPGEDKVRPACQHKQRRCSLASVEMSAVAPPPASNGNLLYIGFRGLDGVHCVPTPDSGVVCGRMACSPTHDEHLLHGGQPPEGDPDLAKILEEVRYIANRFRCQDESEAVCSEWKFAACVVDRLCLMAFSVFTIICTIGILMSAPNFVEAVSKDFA
T1 sequence (P36544 23-502): as above

The compound `Cc1cc(-n2nc(Nc3ccc(F)c(F)c3)nc2C[C@H](C)O)cc(C)n1` [E141] gave a melting point of 225.7 °C. The Emax in data set [1] was 961%. In addition, in data set [2], the EC50 was 1380 nM and the Pam type stood at 2.

Compound `Cc1cc(-n2nc(Nc3cccc(Cl)c3F)nc2CC(=O)NC2CC2)c(C)cn1` [E157] showed a melting point of 192.6 °C. Also, in data set [1], the Emax was 492%. Further, in data set [2], the EC50 was 3800 nM and the Pam type stood at 2.

`Cc1cc(-n2nc(Nc3ccc(F)c(F)c3)nc2CC(=O)NC2CCC2)c(C)cn1` [E162] showed a melting point of 244.1 °C. Moreover, the Emax in data set [1] was determined as 623%. Besides, in data set [2], the EC50 was 2880 nM and the Pam type was determined as 1.

The compound `Cc1cc(-n2nc(Nc3ccc(F)c(F)c3)nc2CC(=O)NCC2CC2)c(C)cn1` [E166] had a melting point of 211.2 °C. Besides, in data set [1], the Emax came out at 589%. Besides, in data set [2], the EC50 was 2340 nM and the Pam type turned out to be 1.

In the case of `Cc1nccc(-n2nc(Nc3cccc(Cl)c3F)nc2CC(=O)NC2CCC2)c1C` [E192], the melting point stood at 187.9 °C. The Emax in data set [1] was 397%. Further, in data set [2], the EC50 is 1580 nM and the Pam type amounted to 1.

Take `Cc1cc(-n2nc(Nc3ccc(F)c(F)c3)nc2C[C@@H](C)O)ccn1` [E198]: the melting point amounted to 210.3 °C. Besides, the Emax in data set [1] worked out at 808%. Also, in data set [2], the EC50 is 1860 nM and the Pam type was 2.

The compound `Cc1cc(-n2nc(Nc3ccc(F)c(F)c3F)nc2CC(=O)NC(C)C)cc(C)n1` [E213] registered a melting point of 252.1 °C. The Emax in data set [1] was 909%. For the same compound, in data set [2], the EC50 was 468 nM and the Pam type was 2.

`Cc1cc(-n2nc(Nc3ccc(F)c(F)c3F)nc2CC(=O)NCC2CC2)cc(C)n1` [E214] returned a melting point of 213.7 °C. Also, the Emax in data set [1] stood at 730%. In data set [2], the EC50 is 132 nM and the Pam type stood at 2.

For the compound `CCNC(=O)Cc1nc(Nc2cc(F)c(F)c(F)c2)nn1-c1cc(C)nc(C)c1` [E215], the melting point turned out to be 296.1 °C. Also, the Emax in data set [1] was determined as 658%. Moreover, in data set [2], the EC50 is 214 nM and the Pam type is on record as 2.

In the case of `CNC(=O)Cc1nc(Nc2cc(Cl)cc(OC)c2)nn1-c1cc(C)nc(C)c1` [E216], the melting point amounted to 246.2 °C. In addition, the Emax in data set [1] was 576%. In data set [2], the EC50 was 603 nM and the Pam type is given as 4.

For the compound `CCNC(=O)Cc1nc(Nc2cc(Cl)cc(OC)c2)nn1-c1cc(C)nc(C)c1` [E219], the melting point stood at 254 °C. For the same compound, the Emax in data set [1] came out at 702%. In addition, in data set [2], the EC50 was 269 nM and the Pam type was found to be 4.

Take `COc1cc(Cl)cc(Nc2nc(CC(=O)NC3CC3)n(-c3cc(C)nc(C)c3)n2)c1` [E221]: the melting point was 264.4 °C. The Emax in data set [1] came out at 620%. Besides, in data set [2], the EC50 is 209 nM and the Pam type is 4.

As to `COc1cc(Cl)cc(Nc2nc(CC(=O)NC3CCC3)n(-c3cc(C)nc(C)c3)n2)c1` [E222], the melting point was 257.8 °C. For the same compound, the Emax in data set [1] worked out at 440%. For the same compound, in data set [2], the EC50 was 83.2 nM and the Pam type stood at 1.

In turn, `CNC(=O)Cc1nc(Nc2ccc(F)c(C(F)(F)F)c2)nn1-c1cc(C)nc(C)c1` [E223] showed a melting point of 264.2 °C. Further, the Emax in data set [1] amounted to 603%. The EC50 in data set [2] was 316 nM.

Take `CCNC(=O)Cc1nc(Nc2ccc(F)c(C(F)(F)F)c2)nn1-c1cc(C)nc(C)c1` [E224]: the melting point worked out at 256.2 °C. Besides, the Emax in data set [1] was 600%. Moreover, in data set [2], the EC50 was 204 nM and the Pam type stood at 1.

As for `Cc1cc(-n2nc(Nc3ccc(F)c(C(F)(F)F)c3)nc2CC(=O)NC2CCC2)cc(C)n1` [E225], the melting point was 248.8 °C. Further, the Emax in data set [1] was found to be 660%. Further, in data set [2], the EC50 is 100 nM and the Pam type turned out to be 0.

With `CNC(=O)Cc1nc(Nc2ccc(OC)c(C(F)(F)F)c2)nn1-c1cc(C)nc(C)c1` [E227], the melting point is 263 °C. Further, in data set [1], the Emax came out at 654%. Besides, in data set [2], the EC50 was 457 nM and the Pam type stood at 4.

Compound `COc1ccc(Nc2nc(CC(=O)NC3CC3)n(-c3cc(C)nc(C)c3)n2)cc1C(F)(F)F` [E229] gave a melting point of 265.7 °C. Further, the Emax in data set [1] came out at 680%. Further, in data set [2], the EC50 was 135 nM and the Pam type is listed as 4.

Regarding `Cc1cc(-n2nc(Nc3ccc(F)c(Cl)c3)nc2CC(=O)NC2CC2)cc(C)n1` [E230], the melting point stood at 287.4 °C. Moreover, the Emax in data set [1] was found to be 417%. The EC50 in data set [2] is 141 nM.

The compound `Cc1cc(-n2nc(Nc3ccc(F)c(Cl)c3)nc2CC(=O)NC2CCC2)cc(C)n1` [E231] came in with a melting point of 273.9 °C. Moreover, in data set [1], the Emax amounted to 606%. The EC50 in data set [2] is 57.5 nM.

Turning to `CNC(=O)Cc1nc(Nc2cc(F)cc(F)c2)nn1-c1cc(C)nc(C)c1` [E232], the melting point turned out to be 282.1 °C. Also, in data set [1], the Emax amounted to 289%. In data set [2], the EC50 was 871 nM.

Regarding `Cc1cc(-n2nc(Nc3ccc(F)c(F)c3)nc2CCC(=O)N(C)C)cc(C)n1` [E234, 3-[(3,4-difluorophenyl)amino]-1-(2,6-dimethyl-4-pyridinyl)-N,N-dimethyl-1H-1,2,4-triazole-5-propanamide], the melting point worked out at 200.2 °C. The Emax in data set [1] was 459%. Also, the EC50 in data set [2] is 61.7 nM.

In turn, `Cc1cc(-n2nc(Nc3ccc4c(c3)OC(F)(F)O4)nc2CCC(=O)N(C)C)cc(C)n1` [E235, 3-[(2,2-difluoro-1,3-benzodioxol-5-yl)amino]-1-(2,6-dimethyl-4-pyridinyl)-N,N-dimethyl-1H-1,2,4-triazole-5-propanamide] yielded a melting point of 178 °C. The Emax in data set [1] stood at 419%. Further, the EC50 in data set [2] was 28.8 nM.

Consider `COc1ccc(Nc2nc(CC(=O)NC3CCC3)n(-c3cc(C)nc(C)c3)n2)cc1C(F)(F)F` [E236], for which the melting point amounted to 268.7 °C. For the same compound, in data set [1], the Emax worked out at 391%. The EC50 in data set [2] is 120 nM.

`CCNC(=O)Cc1nc(Nc2cc(F)cc(F)c2)nn1-c1cc(C)nc(C)c1` [E237] registered a melting point of 289 °C. Besides, in data set [1], the Emax turned out to be 522%. Moreover, the EC50 in data set [2] is 407 nM.

Regarding `Cc1cc(-n2nc(Nc3cc(F)cc(F)c3)nc2CC(=O)NC2CC2)cc(C)n1` [E238], the melting point came to 289.2 °C. Besides, the Emax in data set [1] was found to be 382%. Further, the EC50 in data set [2] was 575 nM.

Turning to `Cc1cc(-n2nc(Nc3cc(F)cc(F)c3)nc2CC(=O)NC2CCC2)cc(C)n1` [E239], the melting point stood at 286.7 °C. Besides, the Emax in data set [1] was found to be 372%. Also, the EC50 in data set [2] was 126 nM.

`CNC(=O)Cc1nc(Nc2cc(F)c(F)c(F)c2)nn1-c1cc(C)nc(C)c1` [E240] gave a melting point of 297.4 °C. Besides, the Emax in data set [1] is 628%. In data set [2], the EC50 was 490 nM.

As to `Cc1cc(-n2nc(Nc3cc(F)c(F)c(F)c3)nc2CC(=O)NC2CC2)cc(C)n1` [E241], the melting point worked out at 295.7 °C. Also, the Emax in data set [1] stood at 653%. Besides, in data set [2], the EC50 was 138 nM.

Regarding `Cc1cc(-n2nc(Nc3cc(F)c(F)c(F)c3)nc2CC(=O)NC2CCC2)cc(C)n1` [E242], the melting point amounted to 291.9 °C. Besides, the Emax in data set [1] was 676%. Also, the EC50 in data set [2] was 95.5 nM.

`CNC(=O)Cc1nc(Nc2cc(OC)cc(C(F)(F)F)c2)nn1-c1cc(C)nc(C)c1` [E243]: the melting point came to 284.6 °C. Further, in data set [1], the Emax is 802%. For the same compound, the EC50 in data set [2] was 204 nM.

Source of the values: patent US8778974B2, “Trisubstituted 1,2,4 triazoles” (Janssen Pharmaceutica NV, priority 2008, dated 2014).
